According to the NIST ThermoML archive (doi:10.1021/je2012633):

Key:
[1] = xn = mol fraction of the nth substance listed; conditions: 101 kPa, Liquid, Vibrating tube method
[2] = 101 kPa, Liquid, Vibrating tube method

CCCCCCOS(=O)(=O)[O-].CC[n+]1ccn(C)c1 [3-ethyl-1-methyl-1H-imidazolium hexyl sulfate] + O
mass density [kg/m3], [1]
Conditions	x1 = 0.0501	x1 = 0.0965	x1 = 0.2075	x1 = 0.3982	x1 = 0.582	x1 = 0.7243	x1 = 0.7976	x1 = 0.9346	x1 = 1
288.15 K	1061.4	1086.5	1111.4	1125.8	1131.2	1133.5	1134.5	1135.8	1136.6
298.15 K	1056	1080.2	1104.8	1119	1124.5	1126.8	1127.7	1129	1129.6
308.15 K	1050.2	1073.7	1097.8	1112.2	1117.8	1120.3	1121.2	1122.3	1123.1
318.15 K	1044.1	1066.9	1090.8	1105.4	1111.2	1113.8	1114.7	1115.8	1116.6

CCCCCCCCOS(=O)(=O)[O-].CCn1cc[n+](C)c1 [1-ethyl-3-methylimidazolium octyl sulfate]
[2]
Conditions	mass density [kg/m3]
288.15 K	1100.7
298.15 K	1093.8
308.15 K	1087
318.15 K	1080.5

O [water] + CCCCCCOS(=O)(=O)[O-].CC[n+]1ccn(C)c1
Conditions	mass density [kg/m3]
[1], 308.15 K, x2 = 0	994.1

CCCCOS(=O)(=O)[O-].CC[n+]1ccn(C)c1 [3-ethyl-1-methylimidazolium butyl sulfate] + O
mass density [kg/m3], [1]
Conditions	288.15 K	298.15 K	308.15 K	318.15 K
x1 = 0.0526	1081	1075.8	1069.6	1063.2
x1 = 0.0987	1114.3	1107.5	1100.5	1093.4
x1 = 0.2007	1146.1	1139.1	1131.9	1124.7
x1 = 0.2973	1159.3	1152.3	1145.3	1138.3
x1 = 0.3957	1167.2	1160.2	1153.2	1146.3
x1 = 0.4866	1171.7	1164.8	1158	1151.1
x1 = 0.5868	1175	1168.4	1161.5	1154.7
x1 = 0.6909	1177.9	1171.1	1164.3	1157.6
x1 = 0.7872	1179.6	1172.9	1166.2	1159.5
x1 = 0.8922	1181.4	1174.5	1167.9	1161.2
x1 = 0.9416	1181.8	1175	1168.3	1161.7
x1 = 1	1182.5	1175.7	1169	1162.4

CCCCCCOS(=O)(=O)[O-].CC[n+]1ccn(C)c1 [3-ethyl-1-methyl-1H-imidazolium hexyl sulfate]
[2]
Conditions	mass density [kg/m3]
288.15 K	1136.6
298.15 K	1129.6
308.15 K	1123.1
318.15 K	1116.6

CCCCOS(=O)(=O)[O-].CC[n+]1ccn(C)c1 [3-ethyl-1-methylimidazolium butyl sulfate] + CCO
mass density [kg/m3], [1]
Conditions	288.15 K	298.15 K	308.15 K	318.15 K
x1 = 0.0498	864.5	856.2	847.9	839.5
x1 = 0.0989	915.1	907.1	898.9	890.9
x1 = 0.1938	987	979.3	971.6	963.8
x1 = 0.2904	1037.4	1030	1022.4	1014.8
x1 = 0.3812	1072.1	1064.8	1057.6	1050.4
x1 = 0.4691	1098.2	1091	1083.9	1076.9
x1 = 0.4993	1105.9	1098.8	1091.1	1083.7
x1 = 0.5699	1122	1114.9	1107.9	1101
x1 = 0.6866	1143.7	1136.7	1129.7	1122.8
x1 = 0.7858	1158.4	1151.6	1144.7	1138
x1 = 0.8794	1169.9	1163.1	1156.3	1149.6
x1 = 1	1182.5	1175.7	1169	1162.4

O [water] + CCOS(=O)(=O)[O-].CCn1cc[n+](C)c1
Conditions	mass density [kg/m3]
[1], 308.15 K, x2 = 0	994.1

CCCCOS(=O)(=O)[O-].CC[n+]1ccn(C)c1 [3-ethyl-1-methylimidazolium butyl sulfate]
[2]
Conditions	mass density [kg/m3]
288.15 K	1182.5
298.15 K	1175.7
308.15 K	1169
318.15 K	1162.4

CCO [ethanol]
[2]
Conditions	mass density [kg/m3]
288.15 K	794.4
298.15 K	785.8
308.15 K	777.1
318.15 K	768.3

CCCCCCOS(=O)(=O)[O-].CC[n+]1ccn(C)c1 [3-ethyl-1-methyl-1H-imidazolium hexyl sulfate] + CCO
mass density [kg/m3], [1]
Conditions	x1 = 0.0977	x1 = 0.2202	x1 = 0.3246	x1 = 0.4377	x1 = 0.4947	x1 = 0.6214	x1 = 0.7252	x1 = 0.7455	x1 = 0.9063	x1 = 1
288.15 K	911.2	990	1031.7	1063.2	1075.5	1097.3	1110.9	1113.2	1128.5	1136.6
298.15 K	903.4	982.4	1024.3	1056	1068.4	1090.4	1104.1	1106.4	1121.8	1129.6
308.15 K	895.3	974.9	1017.1	1048.9	1061.4	1083.5	1097.4	1099.7	1115.2	1123.1
318.15 K	887.4	967.4	1009.8	1042	1054.4	1076.8	1090.7	1093	1108.8	1116.6
